Test results from US20230293526A1, “METHOD FOR TREATING CANCER WITH A REVERSE TRANSCRIPTASE INHIBITOR” (PrimeFour Therapeutics, Inc., priority 2020, published 2023).

What was measured:
[1] = system: human LINE-1; experiment: Human LINE-1 (L1) retrotransposition dual-luciferase reporter assay in HeLa cells; assay type: cell-based; conditions: Homo sapiens, HeLa, 72 h, read-out: Human LINE-1 IC50 (Human L1 activity inhibition)
Summary of the method: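 HeLa cells transfected with dual-luciferase L1 plasmid pYX017 (100 ng/well), dosed immediately after with serially diluted compounds (0.2% DMSO final) in triplicate and incubated 72 h at 37 °C. Relative L1 activity = Firefly/Renilla ×10,000; IC50 from logistic non-linear regression.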

[2] = system: cancer cell lines; experiment: Cancer cell proliferation activity of representative nucleosides, CellTiterGlo 72 h (Example 7, Tables 8 and 9); assay type: cell-based; conditions: 72 h
Summary of the method: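 Cancer cell lines seeded and incubated at 37° C overnight, then exposed to nucleosides (final DMSO 0.1%) for 72 h at 37° C with 5% or 10% CO2. Viability read by CellTiterGlo luminescence and normalized to 0.1% DMSO (100%) and 10 μM staurosporine (0%) controls.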

`C#C[C@]1(CO)O[C@@H](n2ccc(N)nc2=O)C[C@@H]1O` [compound 7, 4-amino-1-((2R,4S,5R)-5-ethynyl-4-hydroxy-5 (hydroxymethyl)tetrahydrofuran-2-yl)pyrimidin-2(1H)-one] was tested, and the IC50 [1] was 0.0097 µM, the IC50 ([2]; 72 h, 5637, bladder) was 1.24 µM and the IC50 ([2]; CLS439, bladder) was over 50 µM. It also gave an IC50 ([2]; HS729, muscle) of 2.1 µM, an IC50 ([2]; J82, bladder) of 2.77 µM and an IC50 ([2]; JAR, placenta) of over 50 µM. It also gave an IC50 ([2]; MT3, breast) of 0.57 µM, an IC50 ([2]; PC3, prostate) of 1.09 µM and an IC50 ([2]; RD, muscle) of 3.86 µM. It also gave an IC50 ([2]; T24, bladder) of 1.03 µM, an IC50 ([2]; Homo sapiens, 22Rv1, 72 h, 22RV1, prostate) of 4.8 µM and an IC50 ([2]; Homo sapiens, 786-0, 72 h, 786O, kidney) of 4.28 µM. It also gave an IC50 ([2]; Homo sapiens, A204, 72 h, A204, muscle) of 0.18 µM, an IC50 ([2]; Homo sapiens, A549, 72 h, A549, lung) of 2.19 µM and an IC50 ([2]; Homo sapiens, A673, 72 h, A673, bone) of 1.97 µM. The IC50 ([2]; Homo sapiens, A2780, 72 h, A2780, ovary) was 2.72 µM, the IC50 ([2]; Homo sapiens, A-375, 72 h, A375, skin) was 3.54 µM and the IC50 ([2]; Homo sapiens, A-431, 72 h, A431, skin) was 2.01 µM. The IC50 ([2]; Homo sapiens, ACHN, kidney) was 2.76 µM, the IC50 ([2]; Homo sapiens, ASPC1, 72 h, ASPC1, pancreas) was 1.23 µM and the IC50 ([2]; Homo sapiens, BT-20, 72 h, BT20, breast) was over 50 µM. The IC50 ([2]; Homo sapiens, BXPC-3, 72 h, BXPC3, pancreas) was 4.12 µM, the IC50 ([2]; Homo sapiens, C-33-A, C33A, endometrial) was 1.03 µM and the IC50 ([2]; Homo sapiens, CAKI-1, 72 h, CAKI1, kidney) was 0.45 µM. For the same molecule, the IC50 ([2]; Homo sapiens, COLO 205, 72 h, COLO205, colon) was 0.29 µM, the IC50 ([2]; Homo sapiens, COLO-678, 72 h, COLO678, colon) was over 50 µM and the IC50 ([2]; Homo sapiens, Ca-Ski, CASKI, endometrial) was over 50 µM. The IC50 ([2]; Homo sapiens, Calu-6, 72 h, CALU6, lung) was 6.33 µM, the IC50 ([2]; Homo sapiens, DLD-1, 72 h, DLD1, colon) was 4.63 µM and the IC50 ([2]; Homo sapiens, DU-145, 72 h, DU145, prostate) was 3.4 µM. It also gave an IC50 ([2]; Homo sapiens, EFO-21, 72 h, EFO21, ovary) of over 50 µM, an IC50 ([2]; Homo sapiens, EJ-28, 72 h, EJ28, bladder) of 3.05 µM and an IC50 ([2]; Homo sapiens, Granta-519, 72 h, GRANTA-519, hematological) of 0.33 µM. It also gave an IC50 ([2]; Homo sapiens, HCT-15, 72 h, HCT15, colon) of 3.28 µM, an IC50 ([2]; Homo sapiens, HCT-116, 72 h, HCT116, colon) of 2.44 µM and an IC50 ([2]; Homo sapiens, HEK293, 72 h, HEK293, kidney) of over 50 µM. For the same molecule, the IC50 ([2]; Homo sapiens, HL-60, 72 h, HL-60, hematological) was 2.03 µM, the IC50 ([2]; Homo sapiens, HT-29, 72 h, HT29, colon) was 4.06 µM and the IC50 ([2]; Homo sapiens, HT-1080, 72 h, HT1080, connective tissue) was 1.58 µM. It also gave an IC50 ([2]; Homo sapiens, HeLa, endometrial) of 2.11 µM, an IC50 ([2]; Homo sapiens, HepG2, 72 h, HEPG2, liver) of 3.08 µM and an IC50 ([2]; Homo sapiens, Hs-578T, HS578T, breast) of 4.73 µM. For the same molecule, the IC50 ([2]; Homo sapiens, IGROV-1, 72 h, IGROV1, ovary) was 3.42 µM, the IC50 ([2]; Homo sapiens, IMR-90, 72 h, IMR90, lung) was over 50 µM and the IC50 ([2]; Homo sapiens, JEG-3, 72 h, JEG3, placenta) was over 50 µM. The IC50 ([2]; Homo sapiens, JIMT-1, 72 h, JIMT1, breast) was 0.82 µM, the IC50 ([2]; Homo sapiens, K562, 72 h, K-562, hematological) was 3.52 µM and the IC50 ([2]; Homo sapiens, Kasumi 1, 72 h, KASUMI-1, hematological) was 0.32 µM. The IC50 ([2]; Homo sapiens, L-363, 72 h, L-363, hematological) was over 50 µM, the IC50 ([2]; Homo sapiens, LoVo, colon) was 1.9 µM and the IC50 ([2]; Homo sapiens, MCF7, 72 h, MCF7, breast) was over 50 µM. For the same molecule, the IC50 ([2]; Homo sapiens, MDA-MB-231, 72 h, MDAMB231, breast) was 0.48 µM, the IC50 ([2]; Homo sapiens, MDA-MB-435, 72 h, MDAMB435, skin) was 3.49 µM and the IC50 ([2]; Homo sapiens, MDA-MB-436, 72 h, MDAMB436, breast) was 3.8 µM. For the same molecule, the IC50 ([2]; Homo sapiens, MDA-MB-468, 72 h, MDAMB468, breast) was over 50 µM, the IC50 ([2]; Homo sapiens, MG-63, 72 h, MG63, bone) was 2.93 µM and the IC50 ([2]; Homo sapiens, MHH-ES-1, 72 h, MHHES1, bone) was 2.06 µM. For the same molecule, the IC50 ([2]; Homo sapiens, MIA PaCa-2, 72 h, MIAPACA2, pancreas) was 5.54 µM, the IC50 ([2]; Homo sapiens, MINO, hematological) was 0.2 µM and the IC50 ([2]; Homo sapiens, MV4-11, 72 h, MV4-11, hematological) was 4.32 µM. The IC50 ([2]; Homo sapiens, NCI-H23, 72 h, NCI-H23, lung) was 2.79 µM, the IC50 ([2]; Homo sapiens, NCI-H82, 72 h, NCIH82, lung) was 17.1 µM and the IC50 ([2]; Homo sapiens, NCI-H292, 72 h, NCIH292, lung) was 1.94 µM. The IC50 ([2]; Homo sapiens, NCI-H460, 72 h, NCIH460, ung) was 2.99 µM, the IC50 ([2]; Homo sapiens, OVCAR-3, 72 h, OVCAR3, ovary) was 2.39 µM and the IC50 ([2]; Homo sapiens, OVCAR-4, 72 h, OVCAR4, ovary) was over 50 µM. It also gave an IC50 ([2]; Homo sapiens, PANC-1, 72 h, PANC1, pancreas) of over 50 µM, an IC50 ([2]; Homo sapiens, PLC-PRF-5, 72 h, PLCPRF5, liver) of over 50 µM and an IC50 ([2]; Homo sapiens, Panc1005, 72 h, PANC1005, pancreas) of 2.57 µM. It also gave an IC50 ([2]; Homo sapiens, Ramos, hematological) of 0.37 µM, an IC50 ([2]; Homo sapiens, SAOS-2, 72 h, SAOS2, bone) of 0.64 µM and an IC50 ([2]; Homo sapiens, SK-BR-3, 72 h, SKBR3, breast) of 2.11 µM. For the same molecule, the IC50 ([2]; Homo sapiens, SK-HEP1, 72 h, SKHEP1, liver) was 1.29 µM, the IC50 ([2]; Homo sapiens, SK-LMS-1, 72 h, SKLMS1, uterus) was 4.2 µM and the IC50 ([2]; Homo sapiens, SK-MEL-5, 72 h, SKMEL5, skin) was over 50 µM. For the same molecule, the IC50 ([2]; Homo sapiens, SK-MEL-28, 72 h, SKMEL28, skin) was over 50 µM, the IC50 ([2]; Homo sapiens, SK-OV-3, 72 h, SKOV3, ovary) was 3.11 µM and the IC50 ([2]; Homo sapiens, SU-DHL10, 72 h, SU-DHL-10, hematological) was 0.69 µM. The IC50 ([2]; Homo sapiens, SU-DHL-6, 72 h, SU-DHL-6, hematological) was 1.06 µM, the IC50 ([2]; Homo sapiens, SW-620, 72 h, SW620, colon) was 2.93 µM and the IC50 ([2]; Homo sapiens, TE-671, 72 h, TE671, muscle) was 3.49 µM. For the same molecule, the IC50 ([2]; Homo sapiens, THP-1, 72 h, THP-1, hematological) was 3.43 µM, the IC50 ([2]; Homo sapiens, U2OS, bone) was over 50 µM and the IC50 ([2]; Homo sapiens, UMUC3, 72 h, UMUC3, bladder) was 3.07 µM. The IC50 ([2]; Homo sapiens, UO-31, 72 h, UO31, kidney) was 1.53 µM, the IC50 ([2]; Homo sapiens, WSU-NHL, hematological) was 0.34 µM and the IC50 ([2]; NCI-H358M, NCIH358M, lung) was 0.29 µM. The IC50 ([2]; PBMC, hematological) was over 50 µM and the IC50 ([2]; RD-ES, RDES, bone) was over 50 µM.
